Test results published in ChEMBL document CHEMBL2074466, “Breast cancer resistance protein exports sulfated estrogens but not free estrogens” (Mol Pharmacol, 2003).

Key:
[1] = target: T1, Broad substrate specificity ATP-binding cassette transporter ABCG2 (Homo sapiens, UniProt Q9UNQ0); test: TP_TRANSPORTER: efflux in BCRP-expressing LLC-PK1 cells; assay type: functional, cell-based; settings: pig
T1 sequence (Q9UNQ0 whole entry): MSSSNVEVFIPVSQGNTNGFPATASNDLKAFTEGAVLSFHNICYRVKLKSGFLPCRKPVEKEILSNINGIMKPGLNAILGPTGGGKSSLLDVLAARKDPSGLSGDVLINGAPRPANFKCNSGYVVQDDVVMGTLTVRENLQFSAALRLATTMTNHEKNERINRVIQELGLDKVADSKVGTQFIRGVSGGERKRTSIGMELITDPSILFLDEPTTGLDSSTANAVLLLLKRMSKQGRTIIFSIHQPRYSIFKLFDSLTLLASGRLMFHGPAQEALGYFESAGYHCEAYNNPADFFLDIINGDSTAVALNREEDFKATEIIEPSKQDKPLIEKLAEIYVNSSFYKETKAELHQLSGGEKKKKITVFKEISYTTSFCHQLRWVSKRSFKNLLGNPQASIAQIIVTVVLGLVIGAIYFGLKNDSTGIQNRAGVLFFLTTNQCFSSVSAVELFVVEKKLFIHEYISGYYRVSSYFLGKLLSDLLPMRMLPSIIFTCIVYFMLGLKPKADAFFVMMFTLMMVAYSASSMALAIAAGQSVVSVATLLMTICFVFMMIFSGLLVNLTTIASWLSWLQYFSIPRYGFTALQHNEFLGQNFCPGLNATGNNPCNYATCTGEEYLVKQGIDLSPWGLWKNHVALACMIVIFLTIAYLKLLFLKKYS

[2] = target: T2, BCRP (ABCG2) (Homo sapiens, UniProt Q9UNQ0); test: TP_TRANSPORTER: inhibition of E1S uptake by 17beta-estradiol 3-sulfate at a concentration of 30uM in membrane vesicle from BCRP-expressing K562 cells; assay type: functional, cell membranes; set-up: scale not given: the % may be the effect or the level left; settings: membrane vesicles from BCRP-expressing K562 cells, probe E1S, read-out: Activity
T2 sequence (Q9UNQ0 whole entry): T1 sequence (Q9UNQ0 whole entry)

[3] = target: T2, BCRP (ABCG2); test: TP_TRANSPORTER: inhibition of E1S uptake by Taurolithocholate-3-sulfate at a concentration of 30uM in membrane vesicle from BCRP-expressing K562 cells; assay type: functional, cell membranes; set-up: scale not given: the % may be the effect or the level left; settings: membrane vesicles from BCRP-expressing K562 cells, probe E1S, read-out: Activity
[4] = target: T1, Broad substrate specificity ATP-binding cassette transporter ABCG2; test: TP_TRANSPORTER: inhibition of E1S uptake by 7-ethyl-10-hydroxycamptothecin at a concentration of 20uM in membrane vesicle from BCRP-expressing K562 cells; assay type: functional, cell membranes; set-up: scale not given: the % may be the effect or the level left; settings: k562, 20 µM
[5] = target: T1, Broad substrate specificity ATP-binding cassette transporter ABCG2; test: TP_TRANSPORTER: drug resistance in BCRP-expressing LLC-PK1 cells; assay type: functional, cell-based; settings: pig
[6] = target: T2, BCRP (ABCG2); test: TP_TRANSPORTER: inhibition of E1S uptake by 17beta-estradiol at a concentration of 30uM in membrane vesicle from BCRP-expressing K562 cells; assay type: functional, cell membranes; set-up: scale not given: the % may be the effect or the level left; settings: membrane vesicles from BCRP-expressing K562 cells, probe E1S, read-out: Activity
[7] = target: T1, Broad substrate specificity ATP-binding cassette transporter ABCG2; test: TP_TRANSPORTER: uptake in BCRP-expressing LLC-PK1 cells; assay type: functional, cell-based; settings: pig
[8] = target: T2, BCRP (ABCG2); test: TP_TRANSPORTER: inhibition of E1S uptake by Estrone at a concentration of 30uM in membrane vesicle from BCRP-expressing K562 cells; assay type: functional, cell membranes; set-up: scale not given: the % may be the effect or the level left; settings: membrane vesicles from BCRP-expressing K562 cells, probe E1S, read-out: Activity
[9] = target: T1, Broad substrate specificity ATP-binding cassette transporter ABCG2; test: TP_TRANSPORTER: inhibition of E1S uptake by Cortisol at a concentration of 30uM in membrane vesicle from BCRP-expressing K562 cells; assay type: functional, cell membranes; set-up: scale not given: the % may be the effect or the level left; settings: k562, 30 µM
[10] = target: T2, BCRP (ABCG2); test: TP_TRANSPORTER: inhibition of E1S uptake by Dehydroepiandrosterone-3-sulfate at a concentration of 30uM in membrane vesicle from BCRP-expressing K562 cells; assay type: functional, cell membranes; set-up: scale not given: the % may be the effect or the level left; settings: membrane vesicles from BCRP-expressing K562 cells, probe E1S, read-out: Activity
[11] = target: T2, BCRP (ABCG2); test: TP_TRANSPORTER: inhibition of E1S uptake by Taurolithocholate at a concentration of 30uM in membrane vesicle from BCRP-expressing K562 cells; assay type: functional, cell membranes; set-up: scale not given: the % may be the effect or the level left; settings: membrane vesicles from BCRP-expressing K562 cells, probe E1S, read-out: Activity
[12] = substrate: C[C@]12CC[C@@H]3c4ccc(OS(=O)(=O)O)cc4CC[C@H]3[C@@H]1CCC2=O; test: TP_TRANSPORTER: uptake in membrane vesicle from BCRP-expressing K562 cells; assay type: functional, cell membranes

In the case of C[C@]12CC[C@@H]3c4ccc(OS(=O)(=O)O)cc4CC[C@H]3[C@@H]1CC[C@@H]2O, the Activity [1] is reported as “substrate []” and the activity at 30 µM [2] is reported as 50%.

Work on C[C@H](CCC(=O)NCCS(=O)(=O)O)C1CC[C@H]2[C@@H]3CC[C@@H]4C[C@H](OS(=O)(=O)O)CC[C@]4(C)[C@H]3CC[C@]12C (some centres undefined) yielded an activity at 30 µM [3] of 30%.

With CCc1c2c(nc3ccc(O)cc13)-c1cc3c(c(=O)n1C2)COC(=O)[C@]3(O)CC [7-ETHYL-10-HYDROXYCAMPTOTHECIN] the Activity [4] was 40% and the Activity [5] was “substrate []”.

Work on C[C@]12CC[C@@H]3c4ccc(O)cc4CC[C@H]3[C@@H]1CC[C@@H]2O [ESTRADIOL] yielded an activity at 30 µM [6] of 50%.

With C[C@]12CC[C@@H]3c4ccc(OS(=O)(=O)O)cc4CC[C@H]3[C@@H]1CCC2=O [ESTRONE SULFURIC ACID] the Activity [7] was “substrate []”.

In the case of C[C@]12CC[C@@H]3c4ccc(O)cc4CC[C@H]3[C@@H]1CCC2=O [ESTRONE], the activity at 30 µM [8] is reported as 70%.

With COc1ccc2c3c([nH]c2c1)[C@H](C=C(C)C)N1C(=O)[C@@H]2CCCN2C(=O)[C@@H]1C3 [FUMITREMORGIN] the Activity [5] was “substrate []”.

With C[C@]12CCC(=O)C=C1CC[C@@H]1[C@@H]2[C@@H](O)C[C@@]2(C)[C@H]1CC[C@]2(O)C(=O)CO [HYDROCORTISONE] the Activity [9] was 70%.

For O=C1c2c(O)ccc(O)c2C(=O)c2c(NCCNCCO)ccc(NCCNCCO)c21 [MITOXANTRONE], the Activity [5] was “substrate []”.

C[C@]12CC[C@H](OS(=O)(=O)O)CC1=CC[C@@H]1[C@@H]2CC[C@]2(C)C(=O)CC[C@@H]12 [PRASTERONE SULFURIC ACID] showed an activity at 30 µM [10] of 50%.

In the case of C[C@H](CCC(=O)NCCS(=O)(=O)O)[C@H]1CC[C@H]2[C@@H]3CC[C@@H]4C[C@H](O)CC[C@]4(C)[C@H]3CC[C@]12C [TAUROLITHOCHOLIC ACID], the activity at 30 µM [11] is reported as 20%.

B1: Broad substrate specificity ATP-binding cassette transporter ABCG2 (Homo sapiens) (protein)
chain: T1 sequence (Q9UNQ0 whole entry)
Work on B1 yielded a Km [12] of 6.8 µM.
